The supplement of paper PMC4862054

Experiments:
Conditions in all cases: incubation time: 72 h
CAL-120 [1] = assay: drug sensitivity score (DSS), CellTiter-Glo (DSS (AUC-based score)); higher = stronger drug effect (viability inhibition or cytotoxicity); extreme values may be limits of the assay
Summary of the method: (§1)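 Breast cancer cell lines were seeded in 20 µl suspension into 384-well plates already holding compound and incubated for 72 h. Each compound was tested at 5 concentrations in 10-fold steps across its own 10,000-fold range. Plates were normalised to 0.1 % DMSO and a positive kill control after CellTox Green and then CellTiter-Glo readings. The area under the fitted dose-response curve served as the basis for the drug sensitivity score.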

MDA-MB-468 = assay: normalised viability (% of control), CellTiter-Blue; higher = more viable cells (about 100 = DMSO control)
Method: (§2)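 DSRT, CellTiter-Blue viability, 72 h incubation. Signal is normalised to DMSO and benzethonium chloride controls. Value is the normalised response at dose 3.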

SK-BR-3 = assay: as above
Method: as §2

CAL-120 [2] = assay: as above
Method: as §2

BT-549 [3] = assay: as above
Method: as §2

Hs578T [4] = assay: as above
Method: as §2

CAL-85-1 = assay: as above
Method: as §2

MDA-MB-231 = assay: as above
Method: as §2

HCC1599 = assay: as above
Method: as §2

MDA-MB-453 [5] = assay: as above
Method: as §2

HCC1143 [6] = assay: as above
Method: as §2

DU-4475 [7] = assay: as above
Method: as §2

MDA-MB-436 = assay: as above
Method: as §2

CAL-148 [8] = assay: as above
Method: as §2

BT-474 [9] = assay: as above
Method: as §2

CAL-51 [10] = assay: as above
Method: as §2

HCC1937 = assay: as above
Method: as §2

HDQ-P1 [11] = assay: as above
Method: as §2

MFM-223 = assay: as above
Method: as §2

CAL-120 [12] = assay: drug sensitivity score (DSS), CellTox Green (DSS (AUC-based score)); higher = stronger drug effect (viability inhibition or cytotoxicity); extreme values may be limits of the assay
Summary of the method: as §1

BT-549 [13] = assay: as above
Summary of the method: as §1

Hs578T [14] = assay: as above
Summary of the method: as §1

MDA-MB-453 [15] = assay: as above
Summary of the method: as §1

HCC1143 [16] = assay: as above
Summary of the method: as §1

DU-4475 [17] = assay: as above
Summary of the method: as §1

CAL-148 [18] = assay: as above
Summary of the method: as §1

BT-474 [19] = assay: as above
Summary of the method: as §1

CAL-51 [20] = assay: as above
Summary of the method: as §1

HDQ-P1 [21] = assay: as above
Summary of the method: as §1

Structure (SMILES) | drug sensitivity score (CAL-120 [1]) | drug sensitivity score (CAL-120 [12]) | drug sensitivity score (BT-549 [13]) | drug sensitivity score (Hs578T [14]) | drug sensitivity score (MDA-MB-453 [15]) | drug sensitivity score (HCC1143 [16]) | drug sensitivity score (DU-4475 [17]) | drug sensitivity score (CAL-148 [18]) | drug sensitivity score (BT-474 [19]) | drug sensitivity score (CAL-51 [20]) | drug sensitivity score (HDQ-P1 [21]) | normalised viability (MDA-MB-468; 100 nM) | normalised viability (SK-BR-3; 100 nM) | normalised viability (CAL-120 [2]; 100 nM) | normalised viability (BT-549 [3]; 100 nM) | normalised viability (Hs578T [4]; 100 nM) | normalised viability (CAL-85-1; 10 nM) | normalised viability (MDA-MB-231; 100 nM) | normalised viability (HCC1599; 100 nM) | normalised viability (MDA-MB-453 [5]; 10 nM) | other results
Cc1[nH]c2ccccc2c1CCNCc1ccc(/C=C/C(=O)NO)cc1 [Panobinostat] | 12.9 | 13.8 | 0 | 18.5 | 4.41 | 6.53 | 6.99 | 20.9 | 14.6 | 18.2 | 3.86 |  |  |  |  |  |  |  |  |  | normalised viability (MDA-MB-468; 10 nM): 76.8%; normalised viability (SK-BR-3; 10 nM): 52.3%; normalised viability (CAL-120 [2]; 10 nM): 59.3%; normalised viability (BT-549 [3]; 10 nM): 106%; normalised viability (Hs578T [4]; 10 nM): 86.8%; normalised viability (CAL-85-1; 1 nM): 99.3%; normalised viability (MDA-MB-231; 10 nM): 94.6%; normalised viability (HCC1599; 10 nM): 84.7%; normalised viability (MDA-MB-453 [5]; 1 nM): 110%; normalised viability (HCC1143 [6]; 10 nM): 86.7%; normalised viability (DU-4475 [7]; 1 nM): 115%; normalised viability (MDA-MB-436; 10 nM): 96.4%; normalised viability (CAL-148 [8]; 1 nM): 102%; normalised viability (BT-474 [9]; 10 nM): 97.4%; normalised viability (CAL-51 [10]; 1 nM): 116%; normalised viability (HCC1937; 10 nM): 69.7%; normalised viability (HDQ-P1 [11]; 1 nM): 102%; normalised viability (MFM-223; 10 nM): 101%
C=C1C[C@@H]2[C@H](CC[C@]3(C)C(=O)CC[C@@H]23)[C@@]2(C)C=CC(=O)C=C12 [Exemestane] | 0 | 0 | 0 | 0 | 0 | 0 | 0 | 0 | 0 | 0 | 3.28 | 111% | 78% | 92.7% | 106% | 94.4% | 84.4% | 99.2% | 87.6% | 102% | normalised viability (HCC1143 [6]; 100 nM): 96%; normalised viability (DU-4475 [7]; 10 nM): 91.1%; normalised viability (MDA-MB-436; 100 nM): 82.8%; normalised viability (CAL-148 [8]; 10 nM): 95.4%; normalised viability (BT-474 [9]; 100 nM): 99.4%; normalised viability (CAL-51 [10]; 10 nM): 96.2%; normalised viability (HCC1937; 100 nM): 103%; normalised viability (HDQ-P1 [11]; 10 nM): 102%; normalised viability (MFM-223; 100 nM): 93%
COCC1(CO)C(=O)C2CCN1CC2 (stereo not given) [Prima-1 Met] | 0 | 0 | 0 | 0 | 0 | 0 | 0 | 0 | 0 | 0 | 0 | 106% | 94.2% | 91.5% | 79.3% | 82.6% | 91.4% | 91.3% | 122% | 106% | normalised viability (HCC1143 [6]; 100 nM): 74.8%; normalised viability (DU-4475 [7]; 10 nM): 99.2%; normalised viability (MDA-MB-436; 100 nM): 101%; normalised viability (CAL-148 [8]; 10 nM): 90.2%; normalised viability (BT-474 [9]; 100 nM): 104%; normalised viability (CAL-51 [10]; 10 nM): 93.9%; normalised viability (HCC1937; 100 nM): 118%; normalised viability (HDQ-P1 [11]; 10 nM): 91.2%; normalised viability (MFM-223; 100 nM): 87.6%
COCC[n+]1c2c(n(Cc3cnccn3)c1C)C(=O)c1ccccc1C2=O [YM155] | 42.3 | 39 | 20.2 | 5.6 | 12.2 | 23.5 | 3.34 | 29.4 | 33.6 | 28.2 | 30.2 | 0.74% | 1.25% | 5.35% | 34% | 47.6% | 29.7% | 1.71% | 10% | 44.7% | normalised viability (HCC1143 [6]; 100 nM): 12.4%; normalised viability (DU-4475 [7]; 10 nM): 110%; normalised viability (MDA-MB-436; 100 nM): 2.36%; normalised viability (CAL-148 [8]; 10 nM): 61.4%; normalised viability (BT-474 [9]; 100 nM): 1.04%; normalised viability (CAL-51 [10]; 10 nM): 70.5%; normalised viability (HCC1937; 100 nM): 3.81%; normalised viability (HDQ-P1 [11]; 10 nM): 64.2%; normalised viability (MFM-223; 100 nM): 26.1%
CN(C)c1nc(N(C)C)nc(N(C)C)n1 [Altretamine] | 0 | 0 | 0 | 0 | 0 | 0 | 0 | 0 | 0 | 0 | 0 | 104% | 92.2% | 95.5% | 84.4% | 96.1% | 102% | 96.8% | 109% | 97.5% | normalised viability (HCC1143 [6]; 100 nM): 91.7%; normalised viability (DU-4475 [7]; 10 nM): 104%; normalised viability (MDA-MB-436; 100 nM): 89.5%; normalised viability (CAL-148 [8]; 10 nM): 102%; normalised viability (BT-474 [9]; 100 nM): 117%; normalised viability (CAL-51 [10]; 10 nM): 103%; normalised viability (HCC1937; 100 nM): 91.8%; normalised viability (HDQ-P1 [11]; 10 nM): 105%; normalised viability (MFM-223; 100 nM): 97.2%
